Test [1] deals with T1, PRMT5 (Homo sapiens, UniProt O14744).
T1 construct: purchased Active Motif 31921
In words: PRMT5 enzymatic activity inhibition test ([3H]-SAM FlashPlate). The format is biochemical. As to conditions: for IC50: 5 nM PRMT5, 0.3 µM [3H]-SAM, 100 nM polypeptide substrate. The procedure: A 1× enzyme reaction buffer was prepared using 10 mM Tris 8.0 (Sigma, Cat. No. T2694-1L), 0.01% Tween-20 (Sigma, Cat. No. P2287-100ML), and 1 mM DTT (Sigma, Cat. No. D0632-10G). […] Subsequently, the concentration (X) and corresponding inhibition rate (Inh%) (Y) were input into EXCEL. The XLFit plug-in was then used to fit the data using the built-in four-parameter logistic equation: Y = Bottom + (Top - Bottom)/(1 + (IC50/X) […]). The IC50 (half-maximal inhibitory concentration) value for each compound was then calculated.

Test [2] concerns Z-138 cells. In words: Z-138 cell growth inhibition test (CellTiter-Glo, 5 days). The test is classed as cell-based. The note with it: Homo sapiens, incubated 5 days (120 h). The protocol: The cells were routinely subcultured. After approximately two passages, well-growing cell strains were selected for plating.
• I. The suspension was removed from the incubator, transferred into a 50 mL centrifuge tube, and then centrifuged at 800-1000 rpm for 3-5 min, and the supernatant was discarded. An appropriate volume of culture medium was added to the centrifuge tube, and the cells were gently pipetted to ensure a uniform suspension. Cell counting was performed using the Vi-Cell XR cell counter. • II. Based on the measured cell density, the cell suspension was adjusted to an appropriate concentration. • III. The cell suspension was added to a 384-well plate at a volume of 40 µL/well, with 700 cells/well. For blank control wells, an equal volume of cell-free culture medium was added instead.
• I. The compound was dissolved in 100% DMSO to prepare a 10 mM stock solution. • II. […]
The assay was performed according to the instructions of the Promega CellTiter-Glo luminescent cell viability assay kit (Promega-G7573): • I. The CellTiter-Glo buffer was thawed and let stand at room temperature. • II. […] The luminescence signals were detected on 2104 EnVision plate reader. […]
The dose-response inhibition curve was plotted using XLFit, and IC50 values were calculated using the four-parameter logistic model: [fit = (A + ((B - A)/(1 + ((C/x) ^ D))))].
On the technique in general: ATP-based viability assays read luminescence as a measure of living cells.

Test [3] concerns human origin B-cell non-Hodgkin's lymphoma Z-138 cell strain. In words: Subcutaneous Z-138 xenograft in mice. The test is classed as in vivo. As to conditions: subcutaneous xenograft in female NOD/SCID mice.

T1 sequence (O14744 whole entry): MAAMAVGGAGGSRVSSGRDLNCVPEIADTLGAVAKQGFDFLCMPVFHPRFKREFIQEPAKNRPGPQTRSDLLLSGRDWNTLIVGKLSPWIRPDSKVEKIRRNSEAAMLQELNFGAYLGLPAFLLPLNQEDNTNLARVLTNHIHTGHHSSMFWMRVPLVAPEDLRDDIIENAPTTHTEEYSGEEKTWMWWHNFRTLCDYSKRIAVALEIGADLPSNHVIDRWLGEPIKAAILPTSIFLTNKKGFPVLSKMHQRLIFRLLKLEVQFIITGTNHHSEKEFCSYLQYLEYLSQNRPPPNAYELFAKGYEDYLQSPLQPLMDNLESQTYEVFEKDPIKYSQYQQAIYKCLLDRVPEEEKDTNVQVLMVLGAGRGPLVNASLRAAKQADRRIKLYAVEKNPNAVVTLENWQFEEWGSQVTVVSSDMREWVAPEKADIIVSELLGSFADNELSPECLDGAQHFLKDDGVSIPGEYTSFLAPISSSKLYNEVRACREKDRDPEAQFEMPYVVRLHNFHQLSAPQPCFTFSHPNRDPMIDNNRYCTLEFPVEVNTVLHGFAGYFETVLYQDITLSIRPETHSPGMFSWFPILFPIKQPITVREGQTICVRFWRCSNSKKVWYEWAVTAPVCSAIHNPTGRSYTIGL
T1 sequence (Q9BQA1 whole entry partner): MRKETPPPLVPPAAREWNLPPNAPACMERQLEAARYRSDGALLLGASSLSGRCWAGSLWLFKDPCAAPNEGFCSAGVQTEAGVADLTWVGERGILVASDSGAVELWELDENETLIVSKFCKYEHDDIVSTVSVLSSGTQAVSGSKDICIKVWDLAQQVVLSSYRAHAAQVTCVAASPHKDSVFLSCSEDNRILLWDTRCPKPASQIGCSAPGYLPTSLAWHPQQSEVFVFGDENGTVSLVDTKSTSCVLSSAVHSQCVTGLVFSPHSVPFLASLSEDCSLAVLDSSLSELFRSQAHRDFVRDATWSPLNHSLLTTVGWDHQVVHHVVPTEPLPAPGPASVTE

One may read the IC50 as the midpoint of a concentration-inhibition curve. Read a low IC50 as greater potency in that assay. Regarding `CC(C)Oc1nc(NC2CCN(C(=O)c3ccccc3)CC2)cc(C(=O)N2CC[C@@H](N3CCc4ccccc4C3)[C@H](O)C2)n1` [Example 1, (6-((1-benzoylpiperidin-4-yl)amino)-2-isopropoxypyrimidin-4-yl)((3R,4R)-4-(3,4-dihydroisoquinolin-2(1H)-yl)-3-hydroxypiperidin-1-yl)methanone], the IC50 in test [1] was 6.4 nM; in test [2], 46.6 nM. Moreover, in test [1] (in vitro, statement in words), the “inhibitory activity against the enzymatic activity” value is recorded as “strong inhibitory effects”. Moreover, in test [3], the tumor inhibition effects result is “excellent tumor inhibition effects”.

As to `CC(=O)N1CCC(Nc2cc(C(=O)N3CCC(N4CCc5ccccc5C4)CC3)nc(C)n2)CC1` [reference compound, reference compound], the IC50 came out at 115 nM in test [1] and 2710 nM in test [2].

Source of the values: patent EP4631939A1, “SALT AND CRYSTAL FORM OF ANTI-TUMOR HETEROCYCLIC COMPOUND” (CSPC Zhongqi Pharmaceutical Technology (Shijiazhuang) Co., …, priority 2022, dated 2024).
